Data: patent US20090181898A1, “ABUSE-RESISTANT A[…]” (SHIRE LLC, priority 2002, published 2009)
Where “and” joins values, the source holds several entries; their conditions need not be identical. Identical values can stand only once. Like-named read-outs stand apart in the source and are kept apart here.

Legend:
[1] = Pharmacokinetics in male beagle dogs after oral or 30-min intravenous administration, 1 mg/kg (LC/MS/MS); format: in vivo; conditions: for AUC(0-t): read-out: AUC0-t of L-lysine-d-amphetamine; for AUC(0-inf): read-out: AUCinf of L-lysine-d-amphetamine; for Cmax: read-out: Cmax of L-lysine-d-amphetamine; for MRT: read-out: MRT of L-lysine-d-amphetamine; for half-life: read-out: t1/2 of L-lysine-d-amphetamine (converted)
Excerpt: This was a non-randomized, two-treatment crossover study. All animals were maintained on their normal diet and were fasted overnight prior to each dose administration. L-lysine-d-amphetamine dose was based on the body weight measured on the morning of each dosing day. The actual dose delivered was based on syringe weight before and after dosing. Serial blood samples were obtained from each animal by direct venipuncture of a jugular vein using vacutainer tubes containing sodium heparin as the anticoagulant. Derived plasma samples were stored frozen until shipment to Quest Pharmaceutical Services, Inc. (Newark, Del.). Pharmacokinetic analysis of the plasma assay results was conducted by Calvert. Animals were treated as follows:
Oral: The test article was administered to each animal via a single oral gavage. On Day 1, animals received the oral dose by gavage using an esophageal tube attached to a syringe. Dosing tubes were flushed with approximately 20 mL tap water to ensure the required dosing solution was delivered.
Intravenous: On Day 8, animals received L-lysine-d-amphetamine as a single 30-minute intravenous infusion into a cephalic vein.
Blood: Serial blood samples (2 mL) were collected using venipuncture tubes containing sodium heparin. Blood samples were taken at 0, 0.25, 0.5, 1, 2, 4, 8, 12, 24, 48, and 72 hours post-oral dosing. […] Collected blood samples were chilled immediately.
Microsoft Excel (Version 6, Microsoft Corp., Redmond, Wash.) was used for calculation of mean plasma concentration and graphing of the plasma concentration-time data. Pharmacokinetic analysis (non-compartmental) was performed using the WinNonlin® software program (Version 4.1, Pharsight, Inc. Mountain View, Calif.). The maximum concentration (Cmax) and the time to Cmax(Tmax) were observed values. The area under the plasma concentration-time curve (AUC) was determined using linear-log trapezoidal rules. The apparent terminal rate constant (λz) was derived using linear least-squares regression with visual inspection of the data to determine the appropriate number of points (minimum of 3 data points) for calculating λz. The AUC0-inf was calculated as the sum of AUC0-t and Cpred/λz, where Cpred was the predicted concentration at the time of the last quantifiable concentration. The plasma clearance (CL/F) was determined as the ratio of Dose/AUC0-inf. The mean residence time (MRT) was calculated as the ratio of AUMC0-inf/AUC0-inf where AUMC0-inf was the area under the first moment curve from the time zero to infinity. The volume of distribution at steady state (Vss) was estimated as CL*MRT. Half-life was calculated as ln 2/λz. The oral bioavailability (F) was calculated as the ratio of AUC0-inf following oral dosing to AUC0-inf following intravenous dosing. Descriptive statistics (mean and standard deviation) of the pharmacokinetic parameters were calculated using Microsoft Excel.
Blood samples were collected up to 24 and 72 hours after the intravenous and oral doses, respectively.

[2] = Stability under treatment with commercially available acids and bases; format: physicochemical; conditions: 20° C.
Procedure: For acids and bases (Table 59), 10 mg of Lys-Amp was mixed with 2 mL of each stock solution, and the solution was shaken at 20° C. For enzyme treatment (Table 60), 10 mg Lys-Amp was mixed with 5 mL of each enzyme cocktail, and the solution was shaken at 37° C. […] Many of the commercially available reagents also contained various solvents and/or surfactants.
Unless otherwise indicated, solutions were used directly from the container and were combined with neat Lys-Amp solid. Lewis Red Devil® Lye, Enforcer Drain Care® Septic Treatment, and Rid-X® Septic Treatment were prepared as saturated solutions in H2O. Enzymes used were purchased from Sigma and directly dissolved in water (3 mg/mL pepsin, 10 mg/mL pancreatin, 3 mg/mL pronase, 3 mg/mL esterase), while enzyme-containing nutraceuticals such as Omnigest® and VitälZym® were first either crushed or opened (1 tablet or capsule per 5 mL of H2O).

[3] = Clinical steady-state pharmacokinetics, 70 mg capsules once daily for 7 days, healthy adults, fasting
Procedure: Patients fasted for at least 10 hours before and 4 hours after final dosing. Venous blood samples (7 mL) were drawn into EDTA vacutainers both before medication dosing on days 0, 1, 6, and 7 (in the morning) and at 16 time points (hours 0.5, 1, 1.5, 2, 3, 4, 5, 6, 7, 8, 10, 12, 16, 24, 48, and 72) after final dosing on day 7. Immediately after sample collection, vacutainer tubes were centrifuged at 3000 rpm at 4° C. for 10 minutes; within 1 hour of collection, they were stored at −20° C.

[4] = Oral pharmacokinetics of L-lysine-d-amphetamine diHCl compared to d-amphetamine sulfate (ELISA); conditions: rat; for Plasma concentrations of d-amphetamine, individual animals: 3 mg/kg d-amphetamine base, Rat #1-#4; for Mean plasma d-amphetamine concentration: n=4
[5] = Pharmacokinetics of d-amphetamine in male and female beagle dogs after oral administration, […]; conditions: oral […] d-amphetamine base
[6] = 30 min iv, 1 mg/kg d-amphetamine base, individual dogs, 1 mg/kg
[7] = male, beagle, dog, plasma, iv, 1 mg/kg, 30 min iv, 1 mg/kg d-amphetamine base, individual dogs
[8] = male, beagle, dog, plasma, po, 1 mg/kg, oral, 1 mg/kg d-amphetamine base, individual dogs
[9] = oral, 1 mg/kg d-amphetamine base, individual dogs, 1 mg/kg
[10] = steady state, 70 mg once daily for 7 days, healthy adults, fasting, mean n = 11

In the case of CC(Cc1ccccc1)NC(=O)C(N)CCCCN [L-lysine-d-amphetamine, 2,6-diaminohexanoic acid-(1-methyl-2-phenylethyl)-amide], the “AUC0-t of L-lysine-d-amphetamine” value [1, 6] was 1072.3 ng·h/mL and 914.1 ng·h/mL, the “Cmax of L-lysine-d-amphetamine” value [1, 6] was 1826.4 ng/mL and 1654.2 ng/mL and the “MRT of L-lysine-d-amphetamine” value [1, 6] was 19.2 min and 18 min. The “Vss of L-lysine-d-amphetamine” value [1, 6] was 0.6034 L/kg and 0.656 L/kg, the “t1/2 of L-lysine-d-amphetamine” value [1, 6] was 63 min and the “Time by which L-lysine-d-amphetamine fell below the quantifiable limit (1 ng/mL)” value ([1]; IV infusion, post-dose) was “approximately 8 hours”. The AUC(0-t) [1, 7] was 898 ng·h/mL, the AUC(0-inf) [1, 7] was 900 ng·h/mL and the clearance ([1]; male, beagle, dog, plasma, iv, 1 mg/kg, 30 min iv, 1 mg/kg d-amphetamine base, individual dogs, read-out: CL of L-lysine-d-amphetamine (converted)) was 37 mL/min/kg. For the same molecule, the Cmax [1, 7] was 1470 ng/mL, the MRT [1, 7] was 21.6 min and the Vd ([1]; male, beagle, dog, plasma, iv, 1 mg/kg, 30 min iv, 1 mg/kg d-amphetamine base, individual dogs, read-out: Vss of L-lysine-d-amphetamine) was 0.807 L/kg. It also gave a half-life [1, 7] of 43.2 min, an AUC(0-t) ([1]; male, beagle, dog, plasma, iv, 1 mg/kg, 30 min iv, 1 mg/kg d-amphetamine base, mean of 3 dogs) of 962 ng·h/mL and a clearance ([1]; male, beagle, dog, plasma, iv, 1 mg/kg, 30 min iv, 1 mg/kg d-amphetamine base, mean of 3 dogs, read-out: CL of L-lysine-d-amphetamine (converted)) of 34.8 mL/min/kg. The clearance ([1]; male, beagle, dog, plasma, iv, 1 mg/kg, IV 30-min infusion, 1 mg/kg, read-out: Mean clearance of L-lysine-d-amphetamine) was 34.8 mL/min/kg, the AUC(0-t) [1, 8] was 368 ng·h/mL and the AUC(0-inf) [1, 8] was 369 ng·h/mL. For the same molecule, the CL/F ([1]; male, beagle, dog, plasma, po, 1 mg/kg, oral, 1 mg/kg d-amphetamine base, individual dogs, read-out: CL/F of L-lysine-d-amphetamine (converted)) was 90.4 mL/min/kg, the Cmax [1, 8] was 407 ng/mL and the bioavailability ([1]; male, beagle, dog, plasma, po, 1 mg/kg, oral, 1 mg/kg d-amphetamine base, individual dogs, read-out: F (bioavailability) of L-lysine-d-amphetamine) was 34.3%. For the same molecule, the MRT [1, 8] was 44.4 min, the half-life [1, 8] was 28.8 min and the AUC(0-t) ([1]; male, beagle, dog, plasma, po, 1 mg/kg, oral, 1 mg/kg d-amphetamine base, mean of 3 dogs) was 318 ng·h/mL. For the same molecule, the “AUC0-t of L-lysine-d-amphetamine” value [1, 9] was 310.8 ng·h/mL and 275.3 ng·h/mL, the “Cmax of L-lysine-d-amphetamine” value [1, 9] was 227.4 ng/mL and 350.2 ng/mL and the “F (bioavailability) of L-lysine-d-amphetamine” value [1, 9] was 34.0% and 30.8%. The “MRT of L-lysine-d-amphetamine” value [1, 9] was 61.8 min and 40.8 min, the “t1/2 of L-lysine-d-amphetamine” value [1, 9] was 27 min and 14.4 min and the “Hydrolysis by commercial acids and bases” value ([2]; up to 24 h) was “ineffective”. For the same molecule, the d-amphetamine release ([2]; Miracle-Gro®) was 7%, the d-amphetamine release ([2]; Olympic® Deck Cleaner) was 4% and the “Time within which L-lysine-d-amphetamine was completely eliminated” value ([3]; healthy adults, 70 mg) was no more than 6 h. The Tolerability ([3]; healthy adults, 70 mg, 7 days) was “well tolerated”, the AUC(0-inf) ([3]; human, in vivo, 70 mg) was 61.1 ng·h/mL and the Cmax ([3]; human, in vivo, 70 mg) was 47.9 ng/mL. It also gave a Tmax ([3]; human, in vivo, 70 mg) of 68.4 min, a half-life ([3]; human, in vivo, 70 mg) of 25.8 min and an AUC(0-t) ([3]; human, in vivo, 70 mg, AUC0-24 of intact L-lysine-d-amphetamine, steady state, 70 mg once daily for 7 days, healthy adults, fasting, mean n = 11) of 60.7 ng·h/mL. The AUC(0-t) ([3]; human, in vivo, 70 mg, AUC0-t of intact L-lysine-d-amphetamine, steady state, 70 mg once daily for 7 days, healthy adults, fasting, mean n = 11) was 59.4 ng·h/mL, the AUC(0-t) ([3]; human, in vivo, 70 mg, Mean AUC0-24 of intact L-lysine-d-amphetamine, healthy adults, 70 mg once daily, after dose 7) was 60.7 ng·h/mL and the “AUC0-∞ of intact L-lysine-d-amphetamine” value [3, 10] was 61.06 ng·h/mL. The “Cmin of intact L-lysine-d-amphetamine” value [3, 10] was 0.0 ng/mL and the “FI of intact L-lysine-d-amphetamine” value [3, 10] was 1896.06%.
With d-amphetamine the “AUC (0-8 h) of d-amphetamine” value ([4]; 3 mg/kg) was 341 ± 35 ng·h/mL, the Cmax of d-amphetamine ([4]; 3 mg/kg) was 111 ± 27 ng/mL and the “Mean Peak of d-amphetamine” value ([4]; 3 mg/kg) was 129 ng/mL. For the same molecule, the “Mean Peak, Percent Amphetamine” value ([4]; 3 mg/kg) was 100%, the “Plasma concentrations of d-amphetamine, individual animals” value (“Plasma concentrations of d-amphetamine” below) ([4]; 0.5 h) was 144 ng/mL and 157 ng/mL and 101 ng/mL and 115 ng/mL and the “Plasma concentrations of d-amphetamine” value ([4]; 1 h) was 152 ng/ml and 78 ng/ml (2×) and 115 ng/ml. The “Plasma concentrations of d-amphetamine” value ([4]; 3 h) was 34 ng/mL and 45 ng/mL and 72 ng/mL and 38 ng/mL, the “Plasma concentrations of d-amphetamine” value ([4]; 5 h) was 20 ng/mL and 14 ng/mL and 12 ng/mL and 15 ng/mL and the “Plasma concentrations of d-amphetamine” value ([4]; 8 h) was 3 ng/ml (2×) and 2 ng/ml (2×). For the same molecule, the “Mean plasma d-amphetamine concentration” value ([4]; 3 mg/kg, 0.5 h) was 129 ng/mL, the “Mean plasma d-amphetamine concentration” value ([4]; 3 mg/kg, 1 h) was 106 ng/mL and the “Mean plasma d-amphetamine concentration” value ([4]; 3 mg/kg, 3 h) was 47 ng/mL. The “Mean plasma d-amphetamine concentration” value ([4]; 3 mg/kg, 5 h) was 15 ng/mL, the “Mean plasma d-amphetamine concentration” value ([4]; 3 mg/kg, 8 h) was 2 ng/mL and the Tmax of d-amphetamine ([5]; Females) was 60 min. The “Tmax of d-amphetamine, Percent (of Amp)” value ([5]; Females) was 100%, the Tmax of d-amphetamine ([5]; Males) was 60 min and the “Tmax of d-amphetamine, Percent (of Amp)” value ([5]; Males) was 100%.
